Reference: US20240358727A1, “MICROSCALE THERMOPHORESIS TO EVALUATE CHANNEL LIPID INTERACTIONS AND METHODS OF TREATING NAV CHANNELS RELATED DISEASES” (Northeastern University, priority 2023, published 2024)
Values joined by “and” are separate entries in the source; they are usually repeats but may differ in a detail not shown here. Equal values may be shown once.

Assays:
IK1 (Kir2.1) = target: T1, IK1 (Kir2.1) (Rattus norvegicus, UniProt Q64273); conditions: diC8-PI(4,5)P2 in recording pipette, concentration dependent; RVCMs, 2% O2; cited from earlier work
T1 construct: endogenous in cells; host or cells: rat ventricular cardiomyocytes (RVCMs)
T1 sequence (Q64273 1-427): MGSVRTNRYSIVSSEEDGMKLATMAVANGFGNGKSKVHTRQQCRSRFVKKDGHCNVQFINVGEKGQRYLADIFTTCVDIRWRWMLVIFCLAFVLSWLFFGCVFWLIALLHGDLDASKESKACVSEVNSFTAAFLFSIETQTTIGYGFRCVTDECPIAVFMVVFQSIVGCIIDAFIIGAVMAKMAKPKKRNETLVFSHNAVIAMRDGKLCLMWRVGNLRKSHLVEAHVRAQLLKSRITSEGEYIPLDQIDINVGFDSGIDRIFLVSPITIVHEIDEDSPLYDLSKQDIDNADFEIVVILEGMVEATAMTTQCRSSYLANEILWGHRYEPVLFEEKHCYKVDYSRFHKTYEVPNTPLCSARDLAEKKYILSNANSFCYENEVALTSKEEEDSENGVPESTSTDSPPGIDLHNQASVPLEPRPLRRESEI

[1] = target: T2, GFP-PHPLCδ (PIP2 biosensor) (Homo sapiens, UniProt P51178); test: MST binding of diC8-PIP2 to GFP-tagged PHPLCδ1 (positive control)
T2 construct: the pleckstrin homology domain of phospholipase C delta (GFP-PHPLCδ), a PIP2 biosensor; expressed in transfected cells; host or cells: cell lysate
T2 sequence (P51178 21-130 limits assumed): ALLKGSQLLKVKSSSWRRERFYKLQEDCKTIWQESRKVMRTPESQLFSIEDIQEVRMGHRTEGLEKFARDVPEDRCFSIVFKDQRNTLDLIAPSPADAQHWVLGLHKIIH
Description: (§1) The method utilizes cell lysates obtained from transfected/infected cells that are lysed and incubated with varying concentrations of a water-soluble analogue of PIP2 commercially available as diC8-PI(4,5)P2, in a 384 well plate. Other phosphoinositides such as diC8PI(4)P of diC8PI(5)P can also be utilized. After a brief incubation (10-30 mins) samples are loaded onto capillary chips purchased from the company Nanotemper. Samples are run on the Nanotemper Monolith instrument. This instrument is advertised to detect green fluorescent protein (GFP) tagged proteins, however we have also used TFP (teal FP) tagged proteins. The instrument provides a short infra-red laser pulse which produces a short thermal gradient. Protein that is interacting with the lipid migrates differently through this thermal gradient and its movement is evaluated by the fluorescence of the GFP/TFP tag on the protein. Based on the concentration of the dic8-phosphoinositide, this resolves into a sigmoidal relationship that delivers an apparent affinity (Kd) value. A test ligand can be added to this assay at a known concentration that is at or close to its Kd for the channel. A shift in the channel's affinity for PIP2 in this assay can help indicate whether this test compound is a good drug candidate for further biological experiments.
Results. […]

Nav1.5-R1644C = target: T3, Nav1.5-R1644C (Homo sapiens, UniProt Q14524, R1644C); test: MST binding of diC8-PIP2 to GFP-Nav1.5-R1644C in cell lysate; conditions: for affinity (Kd) of Nav1.5-R1644C relative to WT, fold lower: R1644C vs WT
T3 construct: expressed in transfected cells; host or cells: HEK293T
T3 sequence (Q14524 whole entry R1644C): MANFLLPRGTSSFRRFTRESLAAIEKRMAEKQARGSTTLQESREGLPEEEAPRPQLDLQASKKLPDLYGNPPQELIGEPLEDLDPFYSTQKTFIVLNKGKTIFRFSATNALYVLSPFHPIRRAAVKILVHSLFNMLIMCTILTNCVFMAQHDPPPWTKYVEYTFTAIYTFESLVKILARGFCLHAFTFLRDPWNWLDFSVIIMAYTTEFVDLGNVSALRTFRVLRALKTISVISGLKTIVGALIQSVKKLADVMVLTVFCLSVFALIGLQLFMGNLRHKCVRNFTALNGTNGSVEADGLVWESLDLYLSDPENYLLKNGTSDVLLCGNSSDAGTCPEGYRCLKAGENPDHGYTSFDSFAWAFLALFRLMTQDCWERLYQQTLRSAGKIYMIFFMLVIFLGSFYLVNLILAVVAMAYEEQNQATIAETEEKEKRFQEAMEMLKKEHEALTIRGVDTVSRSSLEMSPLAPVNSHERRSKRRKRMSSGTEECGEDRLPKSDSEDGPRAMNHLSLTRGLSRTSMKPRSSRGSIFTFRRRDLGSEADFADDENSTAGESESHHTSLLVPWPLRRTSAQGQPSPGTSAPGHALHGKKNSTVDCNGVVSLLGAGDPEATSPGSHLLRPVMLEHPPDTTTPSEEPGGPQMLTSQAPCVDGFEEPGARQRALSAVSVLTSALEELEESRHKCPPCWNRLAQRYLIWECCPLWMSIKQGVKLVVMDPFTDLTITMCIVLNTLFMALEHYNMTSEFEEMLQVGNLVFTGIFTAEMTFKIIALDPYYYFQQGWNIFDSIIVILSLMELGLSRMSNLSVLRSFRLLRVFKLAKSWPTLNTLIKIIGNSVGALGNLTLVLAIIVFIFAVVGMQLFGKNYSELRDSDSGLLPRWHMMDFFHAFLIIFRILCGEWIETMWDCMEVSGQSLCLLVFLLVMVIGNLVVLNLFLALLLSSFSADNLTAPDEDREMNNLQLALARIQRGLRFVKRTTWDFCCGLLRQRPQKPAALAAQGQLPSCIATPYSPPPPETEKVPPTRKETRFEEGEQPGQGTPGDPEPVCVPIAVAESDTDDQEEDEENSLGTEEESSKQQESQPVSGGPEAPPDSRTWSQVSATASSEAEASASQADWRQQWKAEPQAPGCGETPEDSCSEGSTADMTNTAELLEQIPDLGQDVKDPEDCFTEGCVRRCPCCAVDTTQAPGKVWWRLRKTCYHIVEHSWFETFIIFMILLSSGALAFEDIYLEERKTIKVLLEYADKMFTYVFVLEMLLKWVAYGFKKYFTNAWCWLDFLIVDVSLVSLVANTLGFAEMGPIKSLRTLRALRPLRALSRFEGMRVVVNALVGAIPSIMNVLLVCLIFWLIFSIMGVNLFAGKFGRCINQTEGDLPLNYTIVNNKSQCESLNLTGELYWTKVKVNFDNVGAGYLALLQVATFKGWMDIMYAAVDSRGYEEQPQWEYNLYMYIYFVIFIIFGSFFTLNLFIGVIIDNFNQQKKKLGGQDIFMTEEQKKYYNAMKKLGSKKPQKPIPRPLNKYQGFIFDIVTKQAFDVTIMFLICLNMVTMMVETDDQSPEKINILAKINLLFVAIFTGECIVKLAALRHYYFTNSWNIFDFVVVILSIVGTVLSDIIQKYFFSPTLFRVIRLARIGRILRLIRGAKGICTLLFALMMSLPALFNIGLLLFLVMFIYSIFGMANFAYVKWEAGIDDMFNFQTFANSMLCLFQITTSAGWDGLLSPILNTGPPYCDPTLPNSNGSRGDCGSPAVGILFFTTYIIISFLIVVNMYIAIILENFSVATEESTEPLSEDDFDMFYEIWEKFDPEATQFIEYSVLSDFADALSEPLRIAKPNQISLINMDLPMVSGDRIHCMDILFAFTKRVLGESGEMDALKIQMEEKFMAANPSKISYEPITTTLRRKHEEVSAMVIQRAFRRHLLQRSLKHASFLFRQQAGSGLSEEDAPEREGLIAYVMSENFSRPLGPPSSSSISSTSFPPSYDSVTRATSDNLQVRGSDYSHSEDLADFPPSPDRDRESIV
Description: as §1
(§2) Results. Our studies were designed to evaluate PIP2-regulation for Nav1.5 channelopathies from multiple perspectives. Given that there is a lack of structural data to identify where, or how many PIP2 molecules bind to Nav1.5, we performed a docking simulation to identify putative PIP2 binding sites in the open, rat and human Nav1.5 cryoEM structures (PDB: 6UZ3 and 7DTC) (56-58). We observed four potential PIP2 binding sites at the boundary between the inner leaflet of the membrane and the cytoplasm with one at the interface between each voltage sensor and the channel body. In each case, we noted electrostatic and hydrogen bond interactions between the headgroup of PIP2 and multiple disease associated residues. […]

WT-Nav1.5 = target: T4, WT-Nav1.5 (Homo sapiens, UniProt Q14524); test: Whole-cell patch-clamp ILATE of wild type Nav1.5 in HEK293T cells with CRY2-5POCRL; assay type: cell-based; conditions: diC8-PIP2 in pipette
T4 construct: expressed in transfected cells; host or cells: HEK293T
T4 sequence (Q14524 whole entry): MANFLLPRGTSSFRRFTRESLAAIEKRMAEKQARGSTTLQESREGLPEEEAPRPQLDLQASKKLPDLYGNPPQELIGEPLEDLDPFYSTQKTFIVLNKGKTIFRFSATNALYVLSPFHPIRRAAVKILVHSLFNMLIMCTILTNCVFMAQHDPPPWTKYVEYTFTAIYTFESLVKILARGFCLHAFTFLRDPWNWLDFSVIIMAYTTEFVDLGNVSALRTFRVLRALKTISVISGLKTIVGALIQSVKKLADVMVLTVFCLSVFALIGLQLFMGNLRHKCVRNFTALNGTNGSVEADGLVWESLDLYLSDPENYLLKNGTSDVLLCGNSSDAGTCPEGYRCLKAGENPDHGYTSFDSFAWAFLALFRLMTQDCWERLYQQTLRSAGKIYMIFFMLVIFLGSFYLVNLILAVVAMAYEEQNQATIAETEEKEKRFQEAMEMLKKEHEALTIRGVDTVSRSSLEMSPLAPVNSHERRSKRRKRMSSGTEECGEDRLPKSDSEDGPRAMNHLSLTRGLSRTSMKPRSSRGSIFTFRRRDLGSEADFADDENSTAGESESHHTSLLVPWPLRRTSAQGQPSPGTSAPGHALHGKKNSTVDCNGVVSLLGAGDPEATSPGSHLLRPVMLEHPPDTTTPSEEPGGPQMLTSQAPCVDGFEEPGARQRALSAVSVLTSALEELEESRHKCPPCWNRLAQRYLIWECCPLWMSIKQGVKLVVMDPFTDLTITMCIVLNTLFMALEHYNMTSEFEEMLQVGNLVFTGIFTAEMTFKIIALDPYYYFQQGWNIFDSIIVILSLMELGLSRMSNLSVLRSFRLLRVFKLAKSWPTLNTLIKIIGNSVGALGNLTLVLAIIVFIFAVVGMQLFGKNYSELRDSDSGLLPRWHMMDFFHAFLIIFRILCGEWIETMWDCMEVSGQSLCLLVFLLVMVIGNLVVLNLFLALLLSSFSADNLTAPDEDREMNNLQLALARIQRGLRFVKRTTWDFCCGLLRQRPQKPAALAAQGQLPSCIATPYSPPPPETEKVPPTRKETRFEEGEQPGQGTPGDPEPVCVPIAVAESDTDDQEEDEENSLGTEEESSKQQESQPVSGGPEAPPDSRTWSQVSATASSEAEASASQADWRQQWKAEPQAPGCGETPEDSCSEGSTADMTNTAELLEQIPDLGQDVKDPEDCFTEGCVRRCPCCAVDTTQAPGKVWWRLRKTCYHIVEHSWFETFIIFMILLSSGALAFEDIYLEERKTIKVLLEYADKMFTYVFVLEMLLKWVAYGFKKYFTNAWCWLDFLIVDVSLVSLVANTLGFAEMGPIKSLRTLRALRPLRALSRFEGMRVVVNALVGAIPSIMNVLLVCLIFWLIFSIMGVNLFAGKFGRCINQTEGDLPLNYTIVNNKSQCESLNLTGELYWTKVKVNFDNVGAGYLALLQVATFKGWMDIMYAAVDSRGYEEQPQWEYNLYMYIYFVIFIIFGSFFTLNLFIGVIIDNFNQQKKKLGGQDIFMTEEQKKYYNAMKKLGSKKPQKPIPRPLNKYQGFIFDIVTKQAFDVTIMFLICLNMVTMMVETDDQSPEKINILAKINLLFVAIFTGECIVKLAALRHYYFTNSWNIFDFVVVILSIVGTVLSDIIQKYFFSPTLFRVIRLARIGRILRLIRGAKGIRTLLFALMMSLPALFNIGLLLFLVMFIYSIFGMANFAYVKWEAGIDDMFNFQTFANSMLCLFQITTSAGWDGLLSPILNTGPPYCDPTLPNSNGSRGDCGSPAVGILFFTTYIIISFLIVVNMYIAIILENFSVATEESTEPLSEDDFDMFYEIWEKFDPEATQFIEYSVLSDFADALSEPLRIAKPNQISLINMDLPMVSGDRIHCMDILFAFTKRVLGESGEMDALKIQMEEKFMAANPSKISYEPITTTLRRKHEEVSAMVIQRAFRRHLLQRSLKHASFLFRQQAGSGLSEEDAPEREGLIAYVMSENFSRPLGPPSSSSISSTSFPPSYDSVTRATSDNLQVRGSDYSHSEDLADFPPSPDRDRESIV
Description: This is opposed when by 200 μM diC8-PIP2 in the pipette. Comparisons are Students t-test, *** P<0.01, ****P0.001 for 4-6 cells per group.
as §2, with “residues. Among these, we elected to perform functional studies on Nav1.5-R1644C, an LQT3 mutant located between the S4 and S5 transmembrane segments of DIV. We expressed wild type Nav1.5 or Nav1.5-R1644C with Nav1β, CIBN-CAAX and CRY2-5POCRL in HEK293T cells and studied ILATE with and without optogenetic dephosphorylation of PIP2. In wild-type Nav1.5, ILATE was 0.25±0.1% of the peak (n=8) whereas in Nav1.5-R1664C, ILATE was 1.2±0.2% of peak (n=8, P<0.01, unpaired t-test comparison to WT).” for “residues.”

CCCCCCCC(=O)OC[C@H](COP(=O)(O)O[C@@H]1[C@H](O)[C@H](O)[C@@H](OP(=O)(O)O)[C@H](OP(=O)(O)O)[C@H]1O)OC(=O)CCCCCCC [diC8-PIP2]
effect on hypoxic inhibition of IK1 (IK1 (Kir2.1)): opposed | Kd [1]: 130 nM | Kd (Nav1.5-R1644C; Kd of diC8-PIP2 for Nav1.5-R1644C, GFP-Nav1.5-R1644C, HEK293T lysate): 345 nM and 445 nM | affinity (Kd) of Nav1.5-R1644C relative to WT, fold lower (Nav1.5-R1644C): ~8 fold and ~10 fold | affinity (Kd) of Nav1.5-R1644C relative to WT, fold lower (Nav1.5-R1644C; listed as diC8PI(4,5)P2): almost ten-fold lower | effect on ILATE increase when PIP2 is dephosphorylated (WT-Nav1.5): opposed
